Measured values as given in US6809065B2, “Herbicide containing substituted pyrazole derivative as active ingredient” (SDS Biotech K.K., priority 2001, dated 2004).

Columns and labels:
[1] = tested on: wheat (Triticum aestivum); experiment: Upland soil treatment (Test Example 2), crop; type: in vivo; settings: soil surface treatment next day after sowing, 1 kg active ingredient per hectare, evaluated 21st day, lower index = higher safety
In short: (§1)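 Upland soil in pots was sown with weed and crop seeds, covered with about 1 cm soil, and next day sprayed on the surface with wettable-powder formulation at 1 kg active ingredient per hectare. Effects were scored by index on day 21; higher index means stronger weed control, lower index means better crop safety.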

soybean (Glycine max) [2] = experiment: Upland soil treatment (Test Example 2), crop; type: in vivo; settings: soil surface treatment next day after sowing, 1 kg active ingredient per hectare, evaluated 21st day, lower index = higher safety
In short: as §1

[3] = tested on: wheat (Triticum aestivum); experiment: Upland field foliage treatment (Test Example 1), crop; type: in vivo; settings: foliage treatment 14th day after sowing, 1 kg active ingredient per hectare, evaluated 21st day, lower index = higher safety
In short: (§2)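 Foliar spray, 1 kg a.i./ha, wettable powder in water, applied 14 d post-sowing; seeds covered by ~1 cm upland soil. Index scoring at 21 d. Higher index = stronger weed control; for crops, lower index = greater safety.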

soybean (Glycine max) [4] = experiment: as above; type: in vivo; settings: foliage treatment 14th day after sowing, 1 kg active ingredient per hectare, evaluated 21st day, lower index = higher safety
In short: as §2

[5] = tested on: rice (Oryza sative, variety: Koshihikari); experiment: Paddy field treatment (Test Example 3), crop; type: in vivo, Oryza sativa; settings: transplanted rice two-leaf period, water surface treatment 10th day after transplantation, 1 kg active ingredient per hectare, evaluated 21st day, lower index = higher safety
In short: (§3)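 Paddy soil in pots was puddled and flooded to 4 cm, weeds were sown, and two-leaf Koshihikari rice was transplanted at 3 cm depth. Ten days after transplanting, wettable powder was applied onto the water surface at 1 kg active ingredient per hectare. Herbicidal effect was index-scored 21 days later.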

Chenopodium album [6] = experiment: Upland field foliage treatment (Test Example 1); type: in vivo; settings: foliage treatment 14th day after sowing, wettable powder, 1 kg active ingredient per hectare, evaluated 21st day after application
In short: as §2

Digitaria adscendens [7] = experiment: Upland field foliage treatment (Test Example 1); type: in vivo; settings: foliage treatment 14th day after sowing, wettable powder, 1 kg active ingredient per hectare, evaluated 21st day after application
In short: as §2

Stellaria media [8] = experiment: Upland field foliage treatment (Test Example 1); type: in vivo; settings: foliage treatment 14th day after sowing, wettable powder, 1 kg active ingredient per hectare, evaluated 21st day after application
In short: as §2

Setaria viridis [9] = experiment: Upland field foliage treatment (Test Example 1); type: in vivo; settings: foliage treatment 14th day after sowing, wettable powder, 1 kg active ingredient per hectare, evaluated 21st day after application
In short: as §2

Echinochloa spp. = experiment: Paddy field treatment (Test Example 3); type: in vivo, Echinochloa crusgalli; settings: paddy pot, submerged 4 cm, dropped on water surface 10th day after transplantation, 1 kg active ingredient per hectare, evaluated 21st day
In short: as §3

Scirpus juncoides = experiment: Paddy field treatment (Test Example 3); type: in vivo; settings: paddy pot, submerged 4 cm, dropped on water surface 10th day after transplantation, 1 kg active ingredient per hectare, evaluated 21st day
In short: as §3

Monochoria vaginalis = experiment: Paddy field treatment (Test Example 3); type: in vivo; settings: paddy pot, submerged 4 cm, dropped on water surface 10th day after transplantation, 1 kg active ingredient per hectare, evaluated 21st day
In short: as §3

Ammannia multiflora = experiment: Paddy field treatment (Test Example 3); type: in vivo; settings: paddy pot, submerged 4 cm, dropped on water surface 10th day after transplantation, 1 kg active ingredient per hectare, evaluated 21st day
In short: as §3

Chenopodium album [10] = experiment: Upland soil treatment (Test Example 2); type: in vivo; settings: soil surface treatment next day after sowing, wettable powder, 1 kg active ingredient per hectare, evaluated 21st day after application
In short: as §1

Digitaria adscendens [11] = experiment: Upland soil treatment (Test Example 2); type: in vivo; settings: soil surface treatment next day after sowing, wettable powder, 1 kg active ingredient per hectare, evaluated 21st day after application
In short: as §1

Stellaria media [12] = experiment: Upland soil treatment (Test Example 2); type: in vivo; settings: soil surface treatment next day after sowing, wettable powder, 1 kg active ingredient per hectare, evaluated 21st day after application
In short: as §1

Setaria viridis [13] = experiment: Upland soil treatment (Test Example 2); type: in vivo; settings: soil surface treatment next day after sowing, wettable powder, 1 kg active ingredient per hectare, evaluated 21st day after application
In short: as §1

Row | SMILES | Herbicidal activity Triticum aestivum [1] | Herbicidal activity Glycine max (soybean (Glycine max) [2]) | Herbicidal activity Triticum aestivum [3] | Herbicidal activity Glycine max (soybean (Glycine max) [4]) | Herbicidal activity Oryza sativa [5] | Herbicidal activity Chenopodium album (Chenopodium album [6]) | Herbicidal activity Digitaria adscendens (Digitaria adscendens [7]) | Herbicidal activity Stellaria media (Stellaria media [8]) | Herbicidal activity Setaria viridis (Setaria viridis [9]) | Herbicidal activity Echinochloa spp. (Echinochloa spp.) | Herbicidal activity Scirpus juncoides (Scirpus juncoides) | Herbicidal activity Monochoria vaginalis (Monochoria vaginalis) | Herbicidal activity Ammannia multiflora (Ammannia multiflora) | Herbicidal activity Chenopodium album (Chenopodium album [10]) | Herbicidal activity Digitaria adscendens (Digitaria adscendens [11]) | Herbicidal activity Stellaria media (Stellaria media [12]) | Herbicidal activity Setaria viridis (Setaria viridis [13])
1 | COC=C(Cn1cc(Cl)c(-c2ccccc2)n1)C(=O)OC [Compound 15] | 0 (herbicidal effect of not less than 0% by weight and less than 10% by weight) | 0 (herbicidal effect of not less than 0% by weight and less than 10% by weight) | 0 (herbicidal effect of not less than 0% by weight and less than 10% by weight) | 1 (herbicidal effect of not less than 10% by weight and less than 30% by weight) | 0 (herbicidal effect of not less than 0% by weight and less than 10% by weight) | 5 (herbicidal effect of not less than 90% by weight) | 5 (herbicidal effect of not less than 90% by weight) | 5 (herbicidal effect of not less than 90% by weight) | 5 (herbicidal effect of not less than 90% by weight) | 5 (herbicidal effect of not less than 90% by weight) | 5 (herbicidal effect of not less than 90% by weight) | 5 (herbicidal effect of not less than 90% by weight) | 5 (herbicidal effect of not less than 90% by weight) | 5 (herbicidal effect of not less than 90% by weight) | 5 (herbicidal effect of not less than 90% by weight) | 5 (herbicidal effect of not less than 90% by weight) | 5 (herbicidal effect of not less than 90% by weight)
2 | COC=C(Cn1nc(-c2cccc(C)c2)c(Cl)c1C)C(=O)OC [Compound 17] | 0 (herbicidal effect of not less than 0% by weight and less than 10% by weight) | 0 (herbicidal effect of not less than 0% by weight and less than 10% by weight) | 0 (herbicidal effect of not less than 0% by weight and less than 10% by weight) | 0 (herbicidal effect of not less than 0% by weight and less than 10% by weight) | 0 (herbicidal effect of not less than 0% by weight and less than 10% by weight) | 5 (herbicidal effect of not less than 90% by weight) | 4 (herbicidal effect of not less than 70% by weight and less than 90% by weight) | 5 (herbicidal effect of not less than 90% by weight) | 5 (herbicidal effect of not less than 90% by weight) | 5 (herbicidal effect of not less than 90% by weight) | 4 (herbicidal effect of not less than 70% by weight and less than 90% by weight) | 5 (herbicidal effect of not less than 90% by weight) | 5 (herbicidal effect of not less than 90% by weight) | 4 (herbicidal effect of not less than 70% by weight and less than 90% by weight) | 4 (herbicidal effect of not less than 70% by weight and less than 90% by weight) | 4 (herbicidal effect of not less than 70% by weight and less than 90% by weight) | 4 (herbicidal effect of not less than 70% by weight and less than 90% by weight)
